Reference: ChEMBL document CHEMBL5360567, “Modulating leishmanial pteridine metabolism machinery via some new coumarin-1,2,3-triazoles: Design, synthesis and computational studies” (Eur J Med Chem, 2023)

Columns and labels:
Leishmania major [1] = assay: Potency index, ratio of iC50 for miltefosine IC50 to test compound IC50 for antileishmanial activity against Leishmania major promastigotes; type: functional
Leishmania major [2] = assay: Antileishmanial activity against Leishmania major amastigotes incubated for 24 hrs measured by alamar blue staining based fluorescence analysis; type: functional, organism-based
Leishmania major [3] = assay: Antileishmanial activity against Leishmania major promastigotes incubated for 24 hrs measured by alamar blue staining based fluorescence analysis; type: functional, organism-based
[4] = Selectivity index, ratio of CC50 for green monkey Vero cells to IC50 for antileishmanial activity against Leishmania major amastigotes; type: toxicity, cell-based; details: read-out: Ratio CC50/IC50
Leishmania major [5] = assay: Reversal of antileishmanial activity against Leishmania major promastigotes assessed as parasite survival at IC50 preincubated with 100 uM folinic acid for 1 hr followed by compound incubated for 48 hrs (reference value: 24%); type: functional
Leishmania major [6] = assay: Reversal of antileishmanial activity against Leishmania major promastigotes assessed as parasite survival at IC50 preincubated with 20 uM folic acid for 1 hr followed by compound incubated for 48 hrs (reference value: 24%); type: functional
[7] = Cytotoxicity against green monkey Vero cells incubated for 72 hrs by crystal violet staining analysis; type: toxicity, cell-based; details: chlorocebus sabaeus
Leishmania major [8] = assay: Reversal of antileishmanial activity against Leishmania major promastigotes assessed as parasite survival at IC50 preincubated with 20 uM folinic acid for 1 hr followed by compound incubated for 48 hrs (reference value: 24%); type: functional
Leishmania major [9] = assay: Reversal of antileishmanial activity against Leishmania major promastigotes assessed as parasite survival at IC50 preincubated with 100 uM folic acid for 1 hr followed by compound incubated for 48 hrs (reference value: 24%); type: functional
Leishmania major [10] = assay: Antileishmanial activity against Leishmania major amastigotes incubated for 24 hrs measured by alamar blue staining based fluorescence analysis relative to control; type: functional
Leishmania major [11] = assay: Antileishmanial activity against Leishmania major promastigotes incubated for 24 hrs measured by alamar blue staining based fluorescence analysis relative to control; type: functional
Leishmania major [12] = assay: Reversal of antileishmanial activity against Leishmania major promastigotes assessed as parasite survival at IC50 preincubated with 100 uM folic acid for 1 hr followed by compound incubated for 48 hrs (reference value: 22%); type: functional
Leishmania major [13] = assay: Reversal of antileishmanial activity against Leishmania major promastigotes assessed as parasite survival at IC50 preincubated with 100 uM folinic acid for 1 hr followed by compound incubated for 48 hrs (reference value: 22%); type: functional
Leishmania major [14] = assay: Reversal of antileishmanial activity against Leishmania major promastigotes assessed as parasite survival at IC50 preincubated with 20 uM folic acid for 1 hr followed by compound incubated for 48 hrs (reference value: 22%); type: functional
Leishmania major [15] = assay: Potency index, ratio of IC50 for miltefosine IC50 to test compound IC50 for antileishmanial activity against Leishmania major amastigotes; type: functional
Leishmania major [16] = assay: Reversal of antileishmanial activity against Leishmania major promastigotes assessed as parasite survival at IC50 preincubated with 20 uM folinic acid for 1 hr followed by compound incubated for 48 hrs (reference value: 22%); type: functional
Leishmania major [17] = assay: Reversal of antileishmanial activity against Leishmania major promastigotes assessed as parasite survival at IC50 preincubated with 100 uM folic acid for 1 hr followed by compound incubated for 48 hrs (reference value: 20%); type: functional
Leishmania major [18] = assay: Reversal of antileishmanial activity against Leishmania major promastigotes assessed as parasite survival at IC50 preincubated with 20 uM folinic acid for 1 hr followed by compound incubated for 48 hrs (reference value: 20%); type: functional
Leishmania major [19] = assay: Reversal of antileishmanial activity against Leishmania major promastigotes assessed as parasite survival at IC50 preincubated with 20 uM folic acid for 1 hr followed by compound incubated for 48 hrs (reference value: 20%); type: functional
Leishmania major [20] = assay: Reversal of antileishmanial activity against Leishmania major promastigotes assessed as parasite survival at IC50 preincubated with 100 uM folinic acid for 1 hr followed by compound incubated for 48 hrs (reference value: 20%); type: functional
Leishmania tropica [21] = assay: Antileishmanial activity against Leishmania tropica amastigotes incubated for 24 hrs measured by alamar blue staining based fluorescence analysis; type: functional, organism-based
Leishmania tropica [22] = assay: Antileishmanial activity against Leishmania tropica promastigotes incubated for 24 hrs measured by alamar blue staining based fluorescence analysis; type: functional, organism-based

Row | Structure (SMILES) | Ratio IC50 (Leishmania major [1]) | IC50 (Leishmania major [2]) | IC50 (Leishmania major [3]) | also measured
1 | CCCCOc1ccc2cc(/C(C)=N/OCCCCCCn3cc(CN4CCCCC4)nn3)c(=O)oc2c1 | 2 | 4.47 µM | 3870 nM | 
2 | CCCCOc1ccc2cc(C(=O)NCCCCCCn3cc(CN4CCCC4)nn3)c(=O)oc2c1 | 13 | 0.81 µM | 590 nM | selectivity ratio [4]: 311; Activity (Leishmania major [5]): 94%; Activity (Leishmania major [6]): 76%; CC50 at 72 h [7]: 252 µM; Activity (Leishmania major [8]): 83%; Activity (Leishmania major [9]): 84%
3 | CCCCOc1ccc2cc(C(=O)NCCCCCCn3cc(CN4C(=O)CSC4=O)nn3)c(=O)oc2c1 | 3 | 3.88 µM | 2270 nM | Activity (Leishmania major [10]): 48%; Activity (Leishmania major [11]): 30%
4 | CCCCOc1ccc2cc(/C(C)=N/OCCCCCCn3cc(CN4CCCC4)nn3)c(=O)oc2c1 | 10 | 0.99 µM | 780 nM | Activity (Leishmania major [12]): 81%; Activity (Leishmania major [13]): 87%; Activity (Leishmania major [14]): 74%; selectivity ratio [4]: 496; Ratio IC50 (Leishmania major [15]): 8; CC50 at 72 h [7]: 490 µM; Activity (Leishmania major [16]): 79%
5 | CCCCOc1ccc2cc(C(=O)NCCCCCCn3cc(CN4CCOCC4)nn3)c(=O)oc2c1 | 20 | 0.68 µM | 400 nM | Activity (Leishmania major [17]): 91%; selectivity ratio [4]: 359; Activity (Leishmania major [18]): 88%; CC50 at 72 h [7]: 244 µM; Activity (Leishmania major [19]): 82%; Activity (Leishmania major [20]): 91%
6 | CCCCOc1ccc2cc(C(=O)NCCCCCCn3cc(CSC4=NC(=O)CS4)nn3)c(=O)oc2c1 | 3 | 3.86 µM | 2350 nM | Activity (Leishmania major [10]): 48%; Activity (Leishmania major [11]): 30%
7 | CCCCOc1ccc2cc(/C(C)=N/OCCCCCCn3cc(CSC4=NC(=O)CS4)nn3)c(=O)oc2c1 | 2 | 4.84 µM | 3730 nM | 
8 | O=C(N/N=C1\C(=O)N(CC(O)COc2cc(=O)oc3ccccc23)c2ccccc21)c1ccncc1 (stereo not given) |  |  |  | IC50 (Leishmania tropica [21]): 870 nM; IC50 (Leishmania tropica [22]): 100 nM
9 | CCCCOc1ccc2cc(C(=O)NCCCCCCn3cc(CN4CCCCC4)nn3)c(=O)oc2c1 | 7 | 1.83 µM | 1210 nM | 
10 | CCCCOc1ccc2cc(/C(C)=N/OCCCCCCn3cc(CN4C(=O)CSC4=O)nn3)c(=O)oc2c1 | 3 | 3.9 µM | 2830 nM | 
11 | CCCCOc1ccc2cc(/C(C)=N/OCCCCCCn3cc(CN4CCOCC4)nn3)c(=O)oc2c1 | 2 | 5.29 µM | 4630 nM | 
